Reference: patent US12612410B2 (CHILDREN'S HOSPITAL MEDICAL CENTER, priority 2020, dated 2026)
Values belong to the compound of their own block, whether it stands above or below them.

System: MOLM14 F691L cells
Assay: MOLM14 F691L cell viability assay (Cell Titer Glo)
Format: cell-based
How it was run: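 MOLM14 cells carrying FLT3 D835Y or F691L were seeded at 1000 cells/well in RPMI-1640 with 20% FBS and dosed at 22 concentrations, 1:2 dilutions from 10 μM. Viability after 48 h by Cell Titer Glo luminescence; 2.3 μM bortezomib as cytotoxic control.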

SMILES: FC(F)(F)C1(c2cn3c(-c4cccc(N[C@@H]5CCNC5)n4)cnc3cn2)CC1 [Compound 10, (R)-N-(pyrrolidin-3-yl)-6-(6-(1-(trifluoromethyl)cyclopropyl)imidazo[1,2-a]pyrazin-3-yl)pyridin-2-amine]
IC50 (Homo sapiens, MOLM-14, 48 h): 0.168 µM

SMILES: CC(C)(O)c1cn2c(-c3cccc(N[C@@H]4CCCNC4)n3)cnc2cn1 [Compound 30, (R)-2-(3-(6-(piperidin-3-ylamino)pyridin-2-yl)imidazo[1,2-a]pyrazin-6-yl)propan-2-ol]
IC50 (Homo sapiens, MOLM-14, 48 h): 0.381 µM

Further lines, results first:

IC50 (48 hours): 0.299 µM
SMILES: CC(O)(c1cn2c(-c3cccc(N[C@H]4CNC[C@@H]4F)n3)cnc2cn1)C(F)(F)F (single isomer, unassigned) [Compound 78]

IC50 (Homo sapiens, MOLM-14, 48 h): 0.106 µM
SMILES: Cn1cc(-c2cn3c(-c4cccc(N[C@H]5CNC[C@@H]5F)n4)cnc3cn2)cn1 [Compound 52, N-((3S,4S)-4-fluoropyrrolidin-3-yl)-6-(6-(1-methyl-1H-pyrazol-4-yl)imidazo[1,2-a]pyrazin-3-yl)pyridin-2-amine]

IC50 (Homo sapiens, MOLM-14, 48 h): 0.037 µM
SMILES: O=C1NCCN1c1cn2c(-c3cccc(N[C@H]4CNCC[C@@H]4F)n3)cnc2cn1 [Compound 118, 1-(3-(6-(((3S,4S)-4-fluoropiperidin-3-yl)amino)pyridin-2-yl)imidazo[1,2-a]pyrazin-6-yl)imidazolidin-2-one]
